Source: ChEMBL document CHEMBL4130489, “Triclosan-caffeic acid hybrids: Synthesis, leishmanicidal, trypanocidal and cytotoxic activities” (Eur J Med Chem, 2017)
Values after ≈ are worked out from the molar mass of the structure shown. Blank lines part the entries; values can stand above or below the molecule they belong to.

Columns and labels:
[1] = tested on: Trypanosoma cruzi; assay: Antitrypanosomal activity against Trypanosoma cruzi; assay type: functional, organism-based
[2] = Cytotoxicity in human U937 cells assessed as reduction in cell viability incubated for 72 hrs by MTT assay; assay type: cell-based, U-937; conditions: read-out: LC50
[3] = tested on: Leishmania panamensis; assay: Antileishmanial activity against GFP-tagged Leishmania panamensis MHOM/CO/87/UA140 intracellular amastigotes infected in human U937 cells incubated for 72 hrs by flow cytometry; assay type: functional, organism-based; conditions: MHOM/CO/87/UA140, U-937, 72 h
[4] = tested on: Trypanosoma cruzi; assay: Antitrypanosomal activity against Trypanosoma cruzi Tulahuen intracellular amastigotes transfected with beta-galactosidase infected in human U937 cells incubated for 72 hrs by spectrophotometry; assay type: functional, organism-based; conditions: U-937, 72 h
[5] = Selectivity index, ratio of LC50 for cytotoxicity in human U937 cells to EC50 for antitrypanosomal activity against Trypanosoma cruzi Tulahuen intracellular amastigotes transfected with beta-galactosidase infected in human U937 cells; assay type: toxicity, cell-based
[6] = Selectivity index, ratio of LC50 for cytotoxicity in human U937 cells to EC50 for antileishmanial activity against GFP-tagged Leishmania panamensis MHOM/CO/87/UA140 intracellular amastigotes infected in human U937 cells; assay type: toxicity, cell-based
[7] = Cytotoxicity in human U937 cells; assay type: cell-based, U-937; conditions: read-out: LC50 (the source's name)
[8] = tested on: Leishmania panamensis; assay: Antileishmanial activity against GFP-tagged Leishmania panamensis MHOM/CO/87/UA140 amastigotes infected in human U937 cells incubated for 72 hrs by flow cytometry; assay type: functional, organism-based; conditions: MHOM/CO/87/UA140, U-937, 72 h
[9] = tested on: Leishmania major; assay: Antileishmanial activity against Leishmania major promastigotes; assay type: functional, organism-based
[10] = tested on: Leishmania panamensis; assay: Antileishmanial activity against Leishmania panamensis axenic amastigotes; assay type: functional, organism-based
[11] = tested on: Trypanosoma brucei; assay: Antitrypanosomal activity against Trypanosoma brucei bloodstream forms; assay type: functional

IC50 [1]: 286 µM
Compound: O=C(/C=C/c1ccc(O)c(O)c1)O[C@@H]1[C@H](O)C[C@@](O)(C(=O)O)C[C@H]1OC(=O)/C=C/c1ccc(O)c(O)c1

Compound: COc1ccc(/C=C/C(=O)OCCCCCCCOc2cc(Cl)ccc2Oc2ccc(Cl)cc2Cl)cc1OC
CC50 at 72 h [2]: 337 µM
EC50 [3]: 99 µM
EC50 ([4]; read-out: EC50): 27.4 µM
selectivity ratio [5]: > 12.3
selectivity ratio [6]: > 3.4

Compound: O=C(/C=C/c1ccc(O)c(O)c1)OCCCOc1cc(Cl)ccc1Oc1ccc(Cl)cc1Cl
CC50 at 72 h [2]: > 392 µM
EC50 [3]: 24.3 µM
EC50 ([4]; read-out: EC50): 52.4 µM
selectivity ratio [5]: > 7.48
selectivity ratio [6]: > 16.1

Compound: O=C(/C=C/c1ccc(O)c(O)c1)OCCCCCCCCOc1cc(Cl)ccc1Oc1ccc(Cl)cc1Cl
CC50 at 72 h [2]: 40.2 µM
EC50 [3]: 12.9 µM
EC50 ([4]; read-out: EC50): 18.4 µM
selectivity ratio [5]: 2.19
selectivity ratio [6]: 3.11

Compound: COc1ccc(CCC(=O)OCCCOc2cc(Cl)ccc2Oc2ccc(Cl)cc2Cl)cc1OC
CC50 at 72 h [2]: 250 µM
EC50 [3]: 40.2 µM
EC50 ([4]; read-out: EC50): 33.3 µM
selectivity ratio [5]: 7.49
selectivity ratio [6]: 6.2

Compound: COc1ccc(/C=C/C(=O)c2ccc(OCCCCOc3cc(Cl)ccc3Oc3ccc(Cl)cc3Cl)cc2)cc1OC
CC50 [7]: > 200 µg/mL
EC50 [8]: 10.2 µg/mL (≈ 16.2 µM)

Compound: COc1ccc(/C=C/C(=O)OCCCOc2cc(Cl)ccc2Oc2ccc(Cl)cc2Cl)cc1OC
CC50 at 72 h [2]: > 372 µM
EC50 [3]: 38.1 µM
EC50 ([4]; read-out: EC50): > 37.2 µM
selectivity ratio [5]: < 10
selectivity ratio [6]: > 9.77

Compound: COc1ccc(/C=C/C(=O)c2ccc(OCCCCCOc3cc(Cl)ccc3Oc3ccc(Cl)cc3Cl)cc2)cc1OC
CC50 [7]: > 200 µg/mL
EC50 [8]: 13.5 µg/mL (≈ 21 µM)

Compound: O=C(/C=C/c1ccc(O)c(O)c1)OCCCCCOc1cc(Cl)ccc1Oc1ccc(Cl)cc1Cl
CC50 at 72 h [2]: 8.18 µM
EC50 [3]: 15.3 µM
EC50 ([4]; read-out: EC50): 29.7 µM
selectivity ratio [5]: 0.28
selectivity ratio [6]: 0.53

Compound: O=C(/C=C/c1ccc(O)c(O)c1)OCCCCCCCCCOc1cc(Cl)ccc1Oc1ccc(Cl)cc1Cl
CC50 at 72 h [2]: 3.62 µM
EC50 [3]: 30.2 µM
EC50 ([4]; read-out: EC50): 41.3 µM
selectivity ratio [5]: 0.09
selectivity ratio [6]: 0.12

Compound: O=C(/C=C/c1ccc(O)c(O)c1)OCCCCOc1cc(Cl)ccc1Oc1ccc(Cl)cc1Cl
CC50 at 72 h [2]: 12 µM
EC50 [3]: 3.82 µM
EC50 ([4]; read-out: EC50): 8.25 µM
selectivity ratio [5]: 1.46
selectivity ratio [6]: 3.16

Compound: COc1ccc(/C=C/C(=O)OCCCCOc2cc(Cl)ccc2Oc2ccc(Cl)cc2Cl)cc1OC
CC50 at 72 h [2]: 73.4 µM
EC50 [3]: 53.2 µM
EC50 ([4]; read-out: EC50): 42.8 µM
selectivity ratio [5]: 1.72
selectivity ratio [6]: 1.38

Compound: O=C(/C=C/c1ccc(O)c(O)c1)OCCCCCCCOc1cc(Cl)ccc1Oc1ccc(Cl)cc1Cl
CC50 at 72 h [2]: 20 µM
EC50 [3]: 11.7 µM
EC50 ([4]; read-out: EC50): 8.69 µM
selectivity ratio [5]: 2.29
selectivity ratio [6]: 1.72

Compound: O=C(/C=C/c1ccc(O)c(O)c1)OCCCCCCCCCCCCOc1cc(Cl)ccc1Oc1ccc(Cl)cc1Cl
CC50 at 72 h [2]: 174 µM
EC50 [3]: 42.6 µM
EC50 ([4]; read-out: EC50): 34.2 µM
selectivity ratio [5]: 5.08
selectivity ratio [6]: 4.08

Compound: COc1ccc(/C=C/C(=O)OCCCCCCCCCOc2cc(Cl)ccc2Oc2ccc(Cl)cc2Cl)cc1OC
CC50 at 72 h [2]: 107 µM
EC50 [3]: 48.5 µM
EC50 ([4]; read-out: EC50): 33 µM
selectivity ratio [5]: 3.24
selectivity ratio [6]: 2.21

Compound: COc1ccc(/C=C/C(=O)c2ccc(OCCCOc3cc(Cl)ccc3Oc3ccc(Cl)cc3Cl)cc2)cc1OC
CC50 [7]: > 200 µg/mL
EC50 [8]: 9.4 µg/mL (≈ 15.3 µM)

IC50 [9]: 48.8 µM
Compound: CC1(C)C2CCC1(C)[C@H](OC(=O)/C=C/c1ccc(O)c(O)c1)C2 (some centres not stated)

EC50 [10]: 0.67 µM
Compound: CCCCCCCCOC(=O)/C=C/c1ccc(O)c(O)c1

MIC [11]: 0.31 µg/mL (≈ 1.24 µM)
Compound: CC(C)CCOC(=O)/C=C/c1ccc(O)c(O)c1

Compound: C[C@@H]1[C@H](O)[C@@H](C)/C=C/C=C/C=C/C=C/C=C/C=C/C=C/[C@H](O[C@@H]2O[C@H](C)[C@@H](O)[C@H](N)[C@@H]2O)C[C@@H]2O[C@](O)(C[C@@H](O)C[C@@H](O)[C@H](O)CC[C@@H](O)C[C@@H](O)CC(=O)O[C@H]1C)C[C@H](O)[C@H]2C(=O)O [AMPHOTERICIN B]
selectivity ratio [6]: 842

Compound: O=C(Cn1ccnc1[N+](=O)[O-])NCc1ccccc1 [BENZNIDAZOLE]
EC50 [4]: 40.3 µM
selectivity ratio [5]: 17

Compound: O=C(O)/C=C/c1ccc(O)c(O)c1 [CAFFEIC ACID]
CC50 at 72 h [2]: 1110 µM
EC50 [3]: 1100 µM
EC50 ([4]; read-out: EC50): 157 µM
selectivity ratio [5]: > 7.07
selectivity ratio [6]: > 1

Compound: Oc1cc(Cl)ccc1Oc1ccc(Cl)cc1Cl [TRICLOSAN]
EC50 ([4]; read-out: EC50): 49 µM
